From PubChem BioAssay AID1845213 (Molecular Pharmacology Branch, DTP, NCI, 2023)
Values joined by “and” are separate entries in the source; they are usually repeats but may differ in a detail not shown here. Equal entries are not always repeated. Active and inactive are the calls of the source. Rule for the calls: active = viability on the fitted dose curve at most 10% of control; inactive = the rest.

Test system: NCI-H841 complex tumor spheroid viability
Experiment: Anticancer human tumor NCI-H841 cell line growth inhibition;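 for IC50: spheroids exposed to compounds for 7 days before readout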;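 for viability, T/C: spheroids exposed to compounds for 7 days before readout; 100% = DMSO vehicle control wells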
Conditions: for viability, T/C: stronger effect = lower value
Summary of the method: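 Complex spheroids of malignant cells with endothelial cells and mesenchymal stem cells; agents alone or combined, from near clinical Cmax (or 10 microM if unknown) down in half-log steps, 0.25% DMSO final.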

[1] = curve of first compound, second compound 0.003 µM
[2] = curve of first compound, second compound 0.00949 µM
[3] = curve of first compound, second compound 0.03 µM
[4] = curve of first compound, second compound 0.0949 µM
[5] = curve of first compound, second compound 0.3 µM
[6] = second compound 0.003 µM, first compound 0.0316 µM
[7] = second compound 0.003 µM, first compound 0.1 µM
[8] = second compound 0.003 µM, first compound 0.316 µM
[9] = second compound 0.003 µM, first compound 1 µM
[10] = second compound 0.003 µM, first compound 3.16 µM
[11] = second compound 0.003 µM, first compound 10 µM
[12] = second compound 0.00949 µM, first compound 0.0316 µM
[13] = second compound 0.00949 µM, first compound 0.1 µM
[14] = second compound 0.00949 µM, first compound 0.316 µM
[15] = second compound 0.00949 µM, first compound 1 µM
[16] = second compound 0.00949 µM, first compound 3.16 µM
[17] = second compound 0.00949 µM, first compound 10 µM
[18] = second compound 0.03 µM, first compound 0.0316 µM
[19] = second compound 0.03 µM, first compound 0.1 µM
[20] = second compound 0.03 µM, first compound 0.316 µM
[21] = second compound 0.03 µM, first compound 1 µM
[22] = second compound 0.03 µM, first compound 3.16 µM
[23] = second compound 0.03 µM, first compound 10 µM
[24] = second compound 0.0949 µM, first compound 0.0316 µM
[25] = second compound 0.0949 µM, first compound 0.1 µM
[26] = second compound 0.0949 µM, first compound 0.316 µM
[27] = second compound 0.0949 µM, first compound 1 µM
[28] = second compound 0.0949 µM, first compound 3.16 µM
[29] = second compound 0.0949 µM, first compound 10 µM
[30] = second compound 0.3 µM, first compound 0.0316 µM
[31] = second compound 0.3 µM, first compound 0.1 µM
[32] = second compound 0.3 µM, first compound 0.316 µM
[33] = second compound 0.3 µM, first compound 1 µM
[34] = second compound 0.3 µM, first compound 3.16 µM
[35] = second compound 0.3 µM, first compound 10 µM

CC1COCCN1c1cc(-c2ccnn2C)c2ccnc(-c3ccn[nH]3)c2n1 (stereo not given) + Cn1nnc2c(C(N)=O)ncn2c1=O
49.1 nM: IC50 (curve of first compound, second compound 1 µM)
active: viability, T/C (second compound 1 µM, first compound 0.316 µM) 8.33% | viability, T/C (second compound 1 µM, first compound 1 µM) 2.75% | viability, T/C (second compound 1 µM, first compound 3.16 µM) 1.79% | viability, T/C (second compound 1 µM, first compound 10 µM) 1.91% | viability, T/C (second compound 3.16 µM, first compound 0.316 µM) 5.48% | viability, T/C (second compound 3.16 µM, first compound 1 µM) 2.34% | viability, T/C (second compound 3.16 µM, first compound 3.16 µM) 1.67% | viability, T/C (second compound 3.16 µM, first compound 10 µM) 1.99% | viability, T/C (second compound 10 µM, first compound 0.316 µM) 6.12% | viability, T/C (second compound 10 µM, first compound 1 µM) 2.58% | viability, T/C (second compound 10 µM, first compound 3.16 µM) 1.4% | viability, T/C (second compound 10 µM, first compound 10 µM) 1.82% | viability, T/C (second compound 31.6 µM, first compound 0.316 µM) 4.22% | viability, T/C (second compound 31.6 µM, first compound 1 µM) 1.97% | viability, T/C (second compound 31.6 µM, first compound 3.16 µM) 1.42% | viability, T/C (second compound 31.6 µM, first compound 10 µM) 1.66% | viability, T/C (second compound 100 µM, first compound 0.1 µM) 6.68% | viability, T/C (second compound 100 µM, first compound 0.316 µM) 1.75% | viability, T/C (second compound 100 µM, first compound 1 µM) 2.09% | viability, T/C (second compound 100 µM, first compound 3.16 µM) 2.84% | viability, T/C (second compound 100 µM, first compound 10 µM) 1.47%
inactive: viability, T/C (second compound 1 µM, first compound 0.0316 µM) 66% | viability, T/C (second compound 1 µM, first compound 0.1 µM) 24.1% | outcome (second compound 3.16 µM, first compound 0.0316 µM) | viability, T/C (second compound 3.16 µM, first compound 0.1 µM) 20.8% | viability, T/C (second compound 10 µM, first compound 0.0316 µM) 55.4% | viability, T/C (second compound 10 µM, first compound 0.1 µM) 12.6% | viability, T/C (second compound 31.6 µM, first compound 0.0316 µM) 56% | viability, T/C (second compound 31.6 µM, first compound 0.1 µM) 12.1% | viability, T/C (second compound 100 µM, first compound 0.0316 µM) 23.6%
36.9 nM: IC50 (curve of first compound, second compound 31.6 µM)
36.3 nM: IC50 (curve of first compound, second compound 10 µM)
< 31.6 nM: IC50 (curve of first compound, second compound 100 µM)
37.6 nM: IC50 (curve of first compound, second compound 3.16 µM)

Cc1sc2c(c1C)C(c1ccc(Cl)cc1)=NC(CC(=O)Nc1ccc(O)cc1)c1nnc(C)n1-2 (stereo not given)
452 nM and 604 nM and 807 nM: IC50 (curve of compound)
8.1% and 7.29% and 14.4%: viability, T/C (compound 3 µM)
inactive: viability, T/C (compound 0.00949 µM) 104% and 97.9% and 102% | viability, T/C (compound 0.03 µM) 110% and 95.7% and 101% | viability, T/C (compound 0.0949 µM) 87.8% and 91.9% and 91.2% | viability, T/C (compound 0.3 µM) 65.4% and 75.9% and 82.7% | viability, T/C (compound 0.949 µM) 25.2% and 33.3% and 44%

COc1cc(C)[nH]c(=O)c1CN1CCc2c(Cl)cc(C(OC)C3COC3)c(Cl)c2C1=O (stereo not given) + CC[C@@]1(O)C(=O)OCc2c1cc1n(c2=O)Cc2cc3c(CN(C)C)c(O)ccc3nc2-1
< 31.6 nM: IC50 [3] | IC50 [4] | IC50 [5]
inactive: viability, T/C [6] 86.1% | viability, T/C [7] 72.1% | viability, T/C [8] 62.9% | viability, T/C [9] 56.6% | viability, T/C [10] 49.7% | viability, T/C [11] 47.5% | viability, T/C [12] 82.3% | viability, T/C [13] 62.6% | viability, T/C [14] 43.2% | viability, T/C [15] 38.2% | viability, T/C [16] 32.5% | viability, T/C [17] 27.9%
active: viability, T/C [18] 3.53% | viability, T/C [19] 1.86% | viability, T/C [20] 4.87% | viability, T/C [21] 2.31% | viability, T/C [22] 2.71% | viability, T/C [23] 2.37% | viability, T/C [24] 1.65% | viability, T/C [25] 1.4% | viability, T/C [26] 1.34% | viability, T/C [27] 1.12% | viability, T/C [28] 0.95% | viability, T/C [29] 0.94% | viability, T/C [30] 1.75% | viability, T/C [31] 1.53% | viability, T/C [32] 1.29% | viability, T/C [33] 0.89% | viability, T/C [34] 1.03% | viability, T/C [35] 0.98%
3820 nM: IC50 [1]
231 nM: IC50 [2]

[2H]c1nc(C)nc([2H])c1-c1cc(NC[C@@H](C)c2cccc3c(C(=O)NC)ccnc23)ncn1 + CC[C@@]1(O)C(=O)OCc2c1cc1n(c2=O)Cc2cc3c(CN(C)C)c(O)ccc3nc2-1
inactive: viability, T/C [6] 97.6% | viability, T/C [7] 95.8% | viability, T/C [8] 96.1% | viability, T/C [9] 96.4% | viability, T/C [10] 93.4% | viability, T/C [11] 93% | viability, T/C [12] 83.9% | viability, T/C [13] 76.5% | viability, T/C [14] 74.4% | viability, T/C [15] 75.2% | viability, T/C [16] 68.7% | viability, T/C [17] 62.6%
> 10000 nM: IC50 [1] | IC50 [2]
active: viability, T/C [18] 2.66% | viability, T/C [19] 2.14% | viability, T/C [20] 2.36% | viability, T/C [21] 1.49% | viability, T/C [22] 1.43% | viability, T/C [23] 1.47% | viability, T/C [24] 1.75% | viability, T/C [25] 1.82% | viability, T/C [26] 1.89% | viability, T/C [27] 1.74% | viability, T/C [28] 1.58% | viability, T/C [29] 1.67% | viability, T/C [30] 1.97% | viability, T/C [31] 1.94% | viability, T/C [32] 1.59% | viability, T/C [33] 1.73% | viability, T/C [34] 1.5% | viability, T/C [35] 1.17%
< 31.6 nM: IC50 [3] | IC50 [4] | IC50 [5]

CC1COCCN1c1cc(-c2ccnn2C)c2ccnc(-c3ccn[nH]3)c2n1 (stereo not given) + COc1cc2c(cc1O)CCNC21CSC2c3c(OC(C)=O)c(C)c4c(c3C(COC1=O)N1C(O)C3Cc5cc(C)c(OC)c(O)c5C(C21)N3C)OCO4
inactive: viability, T/C (second compound 30 pM, first compound 0.0316 µM) 26.5%
< 31.6 nM: IC50 (curve of first compound, second compound 30 pM) | IC50 (curve of first compound, second compound 94.9 pM) | IC50 (curve of first compound, second compound 0.0003 µM) | IC50 (curve of first compound, second compound 0.000949 µM) | IC50 [1]
active: viability, T/C (second compound 30 pM, first compound 0.1 µM) 3.12% | viability, T/C (second compound 30 pM, first compound 0.316 µM) 1.47% | viability, T/C (second compound 30 pM, first compound 1 µM) 0.86% | viability, T/C (second compound 30 pM, first compound 3.16 µM) 1.08% | viability, T/C (second compound 30 pM, first compound 10 µM) 1.34% | viability, T/C (second compound 94.9 pM, first compound 0.0316 µM) 4.85% | viability, T/C (second compound 94.9 pM, first compound 0.1 µM) 0.92% | viability, T/C (second compound 94.9 pM, first compound 0.316 µM) 0.73% | viability, T/C (second compound 94.9 pM, first compound 1 µM) 0.72% | viability, T/C (second compound 94.9 pM, first compound 3.16 µM) 0.85% | viability, T/C (second compound 94.9 pM, first compound 10 µM) 1.34% | viability, T/C (second compound 0.0003 µM, first compound 0.0316 µM) 0.85% | viability, T/C (second compound 0.0003 µM, first compound 0.1 µM) 0.44% | viability, T/C (second compound 0.0003 µM, first compound 0.316 µM) 0.46% | viability, T/C (second compound 0.0003 µM, first compound 1 µM) 0.56% | viability, T/C (second compound 0.0003 µM, first compound 3.16 µM) 0.59% | viability, T/C (second compound 0.0003 µM, first compound 10 µM) 0.82% | viability, T/C (second compound 0.000949 µM, first compound 0.0316 µM) 0.34% | viability, T/C (second compound 0.000949 µM, first compound 0.1 µM) 0.28% | viability, T/C (second compound 0.000949 µM, first compound 0.316 µM) 0.24% | viability, T/C (second compound 0.000949 µM, first compound 1 µM) 0.15% | viability, T/C (second compound 0.000949 µM, first compound 3.16 µM) 0.06% | viability, T/C (second compound 0.000949 µM, first compound 10 µM) 0.21% | viability, T/C [6] 0.12% | viability, T/C [7] 0.12% | viability, T/C [8] 0.11% | viability, T/C [9] 0.1% | viability, T/C [10] 0.11% | viability, T/C [11] 0.17%

COc1ccc([C@@H](O)c2cc(-c3ncnc4cc(N5CCOCC5)ccc34)c(F)cc2Cl)nn1
inactive: viability, T/C (compound 0.0316 µM) 97.7% and 102% and 99.6% | viability, T/C (compound 0.1 µM) 101% and 104% and 99.6% | viability, T/C (compound 0.316 µM) 95.7% and 99% and 96.2% | outcome (compound 1 µM) | viability, T/C (compound 1 µM) 93.4% and 89.9% | viability, T/C (compound 3.16 µM) 67% and 34.4% and 73.9%
13.7% and 8.86% and 17%: viability, T/C (compound 10 µM)
4570 nM and 2150 nM and 5090 nM: IC50 (curve of compound)
